Data taken from patent US7781393B2, “Methods for inhibiting tumor cell growth” (Dana-Farber Cancer Institute, Inc., priority 2004, dated 2010).

Tests used:
Type in all cases: cell-based, human
MM-1S cells = test: Immunoblotting of anti-apoptotic signaling cascades; conditions: 500 nM, serum-containing medium
Method: (§1) Flow cytometric analyses for IGF-1R, and IGF-2R were performed as previously described on a EPICS-XL-MCL flow cytometer (Beckman Coulter). Previously described protocols were applied for immunoblotting analyses; TRAP telomerase activity assay; 20S proteasome chymotryptic activity assay; DNA binding activity ELISAs for quantitative assessments of NF-κB and HIF-1a transcriptional activities. VEGF and IGF-1 ELISAs were performed according to manufacturer's instructions (R&D Systems, Minneapolis, Minn.).

[1] = test system: MM cells, prostate cancer cells, SK-N-MC sarcoma cells; test: Sensitization of tumor cells to other anti-cancer therapies in vitro; conditions: MM cells to doxorubicin, melphalan, dexamethasone, TRAIL/Apo2L, PS-341, SK-N-MC to Fas ligation
Method: The ability of IGF-1R inhibitors to sensitize tumor cells to other anti-cancer therapies in vitro was determined.

[2] = test system: SW579 papillary thyroid carcinoma cells; test: VEGF ELISA, IGF-1-stimulated thyroid carcinoma cells; conditions: 750 nM; IGF-1 200 ng/mL in serum-free medium
Method: as §1

INA-6 MM cells = test: MTT assay of responsiveness to IL-6; conditions: co-treatment 500 nM, serum, 72 hours
Method: (§2) Cell survival of IGF-1R inhibitor-treated cells was examined using the 3-(4,5-Dimethylthiazol-2-yl)-2,5-Diphenyltetrazolium Bromide (MTT) calorimetric assay. […] At the end of each treatment, cells were incubated with 1 mg/ml MTT for 4 hours at 37° C.; a mixture of isopropanol and 1N HCl (23:2, v/v) was then added under vigorous pipetting to dissolve the formazan crystals. Dye absorbance (A) in viable cells was measured at 570 nm, with 630 nm as a reference wavelength. Cell survival was estimated as a percentage of the value of untreated controls. All experiments were repeated at least three times, and each experimental condition was repeated at least in quadruplicate wells in each experiment.

[3] = test system: PC-3 prostate cancer cells; test: MTT assay of responsiveness to IL-6; conditions: co-treatment 500 nM, serum, 72 hours
Method: as §2

[4] = test system: 58 hematologic and solid tumor cell lines; test: MTT colorimetric survival assay, panel of hematologic and solid tumor cell lines; conditions: all cell lines; 0-10 μM for 72 hours
MM cells = test: Gene expression and proteomic profiling of IGF-1R inhibition; conditions: expression profiling, proteomic analyses, confirmatory assays
Method: Subsequent analysis of scanned image output files were analyzed with Affymetrix GeneChip Microarray Analysis Suite 5.0 software (Affymetrix), normalized and analyzed by hierarchical clustering, functional clustering and relevance network algorithms, as in previous studies. High-throughput global proteomic analysis of the signaling state of IGF-1R-inhibitor-treated MM cells was performed by multiplex-immunoblotting arrays using the KPKS-1.0 and KPSS-1.0 platforms, as previously described (Mitsiades C S et al. Semin Oncol. April 2003; 30(2): 156-60 and Mitsiades N et al. Blood. Mar. 15, 2003; 101(6): 2377-80).
Total RNA was extracted and purified with the Qiagen RNeasy kit (Qiagen, San Diego, Calif.). Five micrograms of total RNA was used in the first-strand cDNA synthesis with T7-d(T)24 primer ([…]-(dT)24) (SEQ ID NO: 1) and Superscript II (GIBCO-BRL, Rockville, Md.). The second-strand cDNA synthesis was carried out at 16° C. by adding Escherichia coli DNA ligase, E. coli DNA polymerase I, and RNase H to the reaction, followed by T4 DNA polymerase to blunt the ends of newly synthesized cDNA. The cDNA was purified through phenol/chloroform and ethanol precipitation. […] Scanned image output files were visually examined for major chip defects and hybridization artifacts and then analyzed with Affymetrix GeneChip® (array) Microarray Analysis Suite 5.0 software (Affymetrix). […]

MM cell lines = test: MTT colorimetric survival assay, serum-stimulated MM cell lines
Method: as §2

Q: What does the source list for `Nc1ncnc2c1c(-c1cccc(OCc3ccccc3)c1)cn2[C@H]1C[C@H](CN2CCCC2)C1` [ADW-742, trans-5-(3-benzyloxy-phenyl)-7-(3-pyrrolidin-1-ylmethyl-cyclobutyl)-7H-pyrrolo[2,3-d]pyrimidin-4-ylamine]?
A: Akt, MEK1/2 and FKHRL-1 phosphorylation (MM-1S cells): early suppression; intracellular levels of Akt, Bmx, IKK-α and RANKL (MM-1S cells): decrease; sensitivity of tumor cells to other anti-cancer therapies [1]: increases the sensitivity; IGF-1-induced secretion of VEGF [2]: suppresses; responsiveness to IL-6 (INA-6 MM cells): abrogated; responsiveness to IL-6 [3]: abrogated; inhibition of serum-induced cell growth [4]: Dose-dependent inhibition; proliferative/anti-apoptotic molecular events associated with exposure to IGF-1 or serum (MM cells): suppressed; IC50 (MM cell lines; Homo sapiens, values generally in this range, 0-10 μM for 72 hours, read-out: IC50, serum-induced cell growth of MM cell lines): 100 to 500 nM; activity against MM cell lines with known resistance to conventional or investigational anti-cancer agents (MM cell lines; also primary tumor cells from MM patients with multi-drug resistant disease): active
